In PubChem BioAssay (NCI) one finds GI50 and TGI data, which are given here for twelve compounds.

Each structure is given as a SMILES string.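 Five compound concentrations were applied to cells in 96-well plates for 48 hours; endpoints were derived by simple linear interpolation of the resulting dose-response curve. Abbreviation: GI50, concentration required for 50% inhibition of growth. TGI is the concentration that stops growth completely.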

Some test systems named below: EKVX NSCLC; HL-60(TB) leukemia; K-562 leukemia; NCI-H226 lung; OVCAR-4 ovarian; SF-268 CNS; SF-539 CNS; SNB-75 CNS; TK-10 renal; RXF 393 renal.
What all share (assay): NCI-60 cell line screen, 48 h

Regarding `CCCCCCCCSC1=CC(=O)c2nc3ccccc3c3ccnc1c23`, the GI50 with EKVX NSCLC is above 100 µM; in the assay with HL-60(TB) leukemia, 16.3 µM; in the assay on K-562 leukemia, 27.4 µM; in the assay with NCI-H226 lung, 0.544 µM; in the assay with OVCAR-4 ovarian it was 19.1 µM; in the assay with SF-268 CNS, 24.7 µM. In addition, the GI50 in the assay on SF-539 CNS, in the assay with SNB-75 CNS and in the assay with TK-10 renal was above 100 µM in each case. The TGI is above 100 µM in the assay with EKVX NSCLC; above 100 µM in the assay on HL-60(TB) leukemia; above 100 µM with K-562 leukemia; 96.8 µM in the assay on NCI-H226 lung; above 100 µM with OVCAR-4 ovarian; above 100 µM in the assay on SF-268 CNS. In addition, the TGI in the assay on SF-539 CNS, in the assay with SNB-75 CNS and in the assay with TK-10 renal was above 100 µM throughout.
In the case of `CSCCCN(CCCSC)CCCSC`, the TGI was above 100 µM with EKVX NSCLC; 50.7 µM in the assay on HL-60(TB) leukemia; above 100 µM with K-562 leukemia; above 100 µM with OVCAR-4 ovarian; above 100 µM in the assay with SF-268 CNS; above 100 µM with SF-539 CNS. The TGI in the assay with SNB-75 CNS is above 100 µM.
With `CC(=O)[O][Hg][c]1c(N)c(C)cc(C)c1F`, the GI50 in the assay on HL-60(TB) leukemia was 1.44 µM; in the assay on K-562 leukemia, 0.749 µM; with NCI-H226 lung, 16.2 µM; in the assay with RXF 393 renal, 1.52 µM; in the assay on SF-268 CNS, 1.22 µM; in the assay with SF-539 CNS, 1.57 µM. Moreover, the GI50 was 1.6 µM in the assay on SNB-75 CNS and 1.87 µM in the assay with TK-10 renal. The TGI in the assay with HL-60(TB) leukemia amounted to 5.17 µM; with K-562 leukemia, 4.03 µM; in the assay with NCI-H226 lung, 44.5 µM; in the assay with RXF 393 renal it was 2.88 µM; with SF-268 CNS, 2.7 µM; in the assay with SF-539 CNS, 3.11 µM. Besides, the figures for the TGI in the assay with SNB-75 CNS and in the assay with TK-10 renal were 5.25 µM and 3.32 µM, respectively.
In the case of `CCOC(=O)COc1cccc2c1C(=O)CCO2`, the TGI in the assay with EKVX NSCLC, in the assay with HL-60(TB) leukemia, with K-562 leukemia, in the assay with OVCAR-4 ovarian, in the assay on SF-268 CNS and in the assay on SF-539 CNS was above 100 µM each time. In the assay on TK-10 renal, this compound returned a TGI above 100 µM.
Take `CNC(=O)c1cc(Oc2ccc3nc(NC(=O)Nc4ccc(Cl)c(C(F)(F)F)c4)sc3c2)ccn1`: the GI50 in the assay with HL-60(TB) leukemia was above 100 µM; in the assay on NCI-H226 lung, 2.69 µM; with RXF 393 renal it was 1.93 µM; in the assay on SF-268 CNS, 2.34 µM; in the assay with SNB-75 CNS, 1.52 µM; in the assay on TK-10 renal it was 2.29 µM. For the same compound, the TGI is above 100 µM in the assay on HL-60(TB) leukemia; 7.47 µM in the assay on NCI-H226 lung; 4.57 µM with RXF 393 renal; 16.4 µM with SF-268 CNS; 3.24 µM in the assay with SNB-75 CNS; 4.62 µM in the assay with TK-10 renal.
On to `O=C(O)CCSC(=O)Nc1cccc(F)c1`, for which the TGI with EKVX NSCLC, in the assay on HL-60(TB) leukemia, in the assay with K-562 leukemia, with NCI-H226 lung, in the assay with SF-268 CNS and in the assay with SF-539 CNS was above 100 µM each time. Further, in the assay with TK-10 renal, the TGI was above 100 µM.
In the case of `Cc1cnc(NC(=O)C(Cc2ccccc2)NC(=O)c2ccccc2)s1` (configuration not stated), the GI50 in the assay on EKVX NSCLC was 19.5 µM; in the assay on HL-60(TB) leukemia it was 21.2 µM; with K-562 leukemia it was 37.2 µM; in the assay on NCI-H226 lung, 2.04 µM; in the assay on OVCAR-4 ovarian, 16.3 µM; in the assay with SF-268 CNS, 23.2 µM. Also, the GI50 in the assay on SF-539 CNS was 14.2 µM; with SNB-75 CNS it was 6.53 µM; with TK-10 renal, 10.2 µM. In addition, the TGI in the assay on EKVX NSCLC was 47.6 µM; in the assay with HL-60(TB) leukemia, 51.5 µM; in the assay on K-562 leukemia, above 100 µM; in the assay on NCI-H226 lung, 7.05 µM; in the assay on OVCAR-4 ovarian it was above 100 µM; in the assay with SF-268 CNS it was 54.7 µM. For the same compound, the TGI is 31.1 µM with SF-539 CNS, 27.7 µM in the assay with SNB-75 CNS and 30.7 µM in the assay on TK-10 renal.
Turning to `COC(=O)[C@@]12C3=NO[C@]1(C(=O)OC)C(O[Si](C)(C)C(C)(C)C)[C@H]1OC(C)(C)O[C@H]1[C@@H]2C(OCc1ccccc1)CC3` (some centres not stated), the TGI is above 100 µM with EKVX NSCLC; above 100 µM with HL-60(TB) leukemia; above 100 µM in the assay on K-562 leukemia; above 100 µM with NCI-H226 lung; 97.2 µM with OVCAR-4 ovarian; above 100 µM in the assay with SF-539 CNS. Further, the TGI in the assay with SNB-75 CNS was 58 µM; with TK-10 renal, above 100 µM.
For the compound `COc1ccc2c(c1)C(=O)/C(=C/c1ccc(OCC(=O)Nc3nccs3)cc1)O2`, the GI50 was 2.04 µM with EKVX NSCLC; 0.187 µM in the assay on HL-60(TB) leukemia; 1.84 µM in the assay with K-562 leukemia; 12.8 µM with NCI-H226 lung; 2.26 µM in the assay with OVCAR-4 ovarian; 0.184 µM with SF-539 CNS. For the same compound, the GI50 in the assay with SNB-75 CNS is 0.629 µM; with TK-10 renal, 3.39 µM. The TGI in the assay on HL-60(TB) leukemia came to 0.413 µM; in the assay on NCI-H226 lung, 34.8 µM; with OVCAR-4 ovarian it was 14.5 µM; in the assay with SF-539 CNS, 0.361 µM; in the assay with SNB-75 CNS, 9.38 µM; in the assay on TK-10 renal, 17.8 µM.
With `Cc1cc(=O)[nH]c(NNC(C#N)c2cccc(O)c2)n1` (configuration not stated), the TGI in the assay with HL-60(TB) leukemia, with K-562 leukemia, in the assay on NCI-H226 lung, in the assay with OVCAR-4 ovarian, with RXF 393 renal and in the assay on SF-268 CNS was above 100 µM in each case. The TGI in the assay on SF-539 CNS, with SNB-75 CNS and in the assay on TK-10 renal was above 100 µM throughout.
As for `COc1ccc2c(c1)C1(C=N2)CCN(C(C)=O)CC1`, the TGI with EKVX NSCLC, with HL-60(TB) leukemia, in the assay with K-562 leukemia, in the assay with OVCAR-4 ovarian, in the assay with SF-268 CNS and in the assay on SF-539 CNS was above 100 µM each time. Moreover, the TGI in the assay with SNB-75 CNS and in the assay on TK-10 renal was above 100 µM in each case.
For the compound `CC1(C)OC(=O)C(=Cc2ccc(O)cc2)C(=O)O1`, the TGI in the assay on EKVX NSCLC, in the assay on HL-60(TB) leukemia, in the assay on K-562 leukemia, in the assay with NCI-H226 lung, with OVCAR-4 ovarian and in the assay with SF-268 CNS was above 100 µM throughout. The TGI in the assay on SF-539 CNS and in the assay with TK-10 renal was above 100 µM throughout.
